Results on four compounds are retold here after US6984643B2, “2,5-substituted pyrimidine derivatives-CCR-3 receptor antagonists” (Roche Palo Alto LLC, priority 2002, dated 2006).

pIC50: −log10 of the molar value.

The test addresses T1, CCR-3 receptor (Homo sapiens, UniProt P51677).
T1 construct: expressed in transfected cells; host or cells: L1.2 (murine pre-B lymphoma line)
T1 sequence (P51677 1-355): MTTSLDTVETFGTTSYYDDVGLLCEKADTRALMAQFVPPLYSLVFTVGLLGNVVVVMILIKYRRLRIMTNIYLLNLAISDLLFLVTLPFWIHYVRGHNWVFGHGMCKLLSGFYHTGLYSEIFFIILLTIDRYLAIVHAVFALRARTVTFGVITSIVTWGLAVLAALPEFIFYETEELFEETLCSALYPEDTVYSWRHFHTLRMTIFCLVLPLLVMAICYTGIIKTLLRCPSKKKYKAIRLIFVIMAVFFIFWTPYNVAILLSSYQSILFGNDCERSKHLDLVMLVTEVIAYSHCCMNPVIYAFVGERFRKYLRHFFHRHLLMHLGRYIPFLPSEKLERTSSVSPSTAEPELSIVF
Kind of test: CCR-3 Receptor Binding Assay in vitro (inhibition of 125I eotaxin binding to CCR-3 L1.2 transfectant cells). To be noted: concentration reducing 125I-eotaxin binding to CCR-3 L1.2 transfected cells by 50%; read-out: CCR-3 IC50. The procedure:
The CCR-3 antagonistic activity of the compounds of the invention was determined by their ability to inhibit the binding of ^125I eotaxin to CCR-3 L1.2 transfectant cells (see Ponath, P. D. et al., J. Exp. Med., Vol. 183, 2437-2448, (1996)).
The assay was performed in Costar 96-well polypropylene round bottom plates. Test compounds were dissolved in DMSO and then diluted with binding buffer (50 mM HEPES, 1 mM CaCl2, 5 mM MgCl2, 0.5% bovine serum albumin (BSA), 0.02% sodium azide, pH 7.24) such that the final DMSO concentration was 2%. Each well was filled with 25 μl of the test solution or only buffer with DMSO (control samples) followed by the addition of 25 μl of ^125I-eotaxin (100 pmol) (NEX314, New England Nuclear, Boston, Mass.) and 1.5×10^5 of the CCR-3 L1.2 transfected cells in 25 μl binding buffer. The final reaction volume was 75 μl.
After incubating the reaction mixture for 1 h at room temperature, the reaction was terminated by filtering the reaction mixture through polyethylenimine treated Packard Unifilter GF/C filter plate (Packard, Chicago, Ill.). The filters were washed four times with ice cold wash buffer containing 10 mM HEPES and 0.5M sodium chloride (pH 7.2) and dried at 65° C. for approximately 10 min. 25 μl/well of Microscint-20™ scintillation fluid (Packard) was added and the radioactivity retained on the filters was determined by using the Packard TopCount™.
The IC50 value (concentration of test compound required to reduce ^125I-eotaxin binding to the CCR-3 L 1.2 transfected cells by 50%) for compounds in Table I of the invention was between 0.02 and 200 μM, preferably between 0.02 and 10 μM.
One may read the pIC50 as the IC50 on a negative log10 scale, so that one unit is a factor of ten. `COc1cc(-c2cnc(OCC(=O)NCC3CCCN(Cc4ccc(Cl)c(Cl)c4)C3)nc2)cc(OC)c1OC` (stereo not shown) [Compound 58, N-[1-(3,4-dichloro-benzyl)-piperidin-3-ylmethyl]-2-[5-(3,4,5-trimethoxy-phenyl)-pyrimidin-2-yloxy]-acetamide]: the pIC50 is 4.68.
On to `COc1ccc(-c2cnc(SCC(=O)NCC3CCCN(Cc4ccc5c(c4)CCC5)C3)nc2)cc1OC` (stereo not shown) [Compound 16, 2-[5-(3,4-dimethoxy-phenyl)-pyrimidin-2-ylsulfanyl]-N-(1-indan-5-ylmethyl-piperidin-3-ylmethyl)-acetamide], for which the negative-log IC50 (pIC50) was 6.56.
As for `COc1ccc(-c2cnc(SCC(=O)NCC3CCCN(Cc4ccc5cc[nH]c5c4)C3)nc2)cc1` (stereo not shown) [Compound 30], the pIC50 was 6.14.
Consider `COc1ccc(-c2cnc(SCC(=O)NCC3CCCN(Cc4ccc5c(c4)CCC5)C3)nc2)cc1` (stereo not shown) [Compound 40], for which the pIC50 was 5.86.
